Assay results as given in patent US9868746B2, “Substituted 5-aminothieno[2,3-C]pyridazine-6-carboxamide analogs as positive allosteric modulators of the muscarinic acetylcholine receptor M4” (Vanderbilt University, priority 2012, dated 2018).

Biological target: T1, mAChR M4 (Homo sapiens, UniProt P08173)
T1 construct: expressed in transfected cells; host or cells: CHO-K1 cells stably transfected with M4 cDNA and chimeric G-protein Gqi5
T1 sequence (P08173 1-479): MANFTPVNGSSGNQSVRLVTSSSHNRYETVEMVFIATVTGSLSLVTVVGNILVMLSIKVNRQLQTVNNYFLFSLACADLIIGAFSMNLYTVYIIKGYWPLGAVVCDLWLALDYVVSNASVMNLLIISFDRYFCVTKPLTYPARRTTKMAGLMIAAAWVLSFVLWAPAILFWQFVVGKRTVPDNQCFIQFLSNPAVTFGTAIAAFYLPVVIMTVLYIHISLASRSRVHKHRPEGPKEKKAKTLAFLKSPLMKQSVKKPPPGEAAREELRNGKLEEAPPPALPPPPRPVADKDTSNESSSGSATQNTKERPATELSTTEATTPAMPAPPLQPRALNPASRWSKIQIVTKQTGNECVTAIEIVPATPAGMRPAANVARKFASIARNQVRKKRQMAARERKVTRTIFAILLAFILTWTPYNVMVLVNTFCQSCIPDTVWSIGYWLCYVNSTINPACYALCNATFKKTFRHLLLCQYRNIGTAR
Test: mAChR M4 cell-based functional assay (calcium mobilization, potentiation of EC20 acetylcholine response)
Conditions: for Emax at 30 µM: % ACh maximum at 30 μM; for EC50: mAChR M4 cell-based functional assay, >10,000 estimated for low potency compounds without plateau, read-out: EC50

Compound	Emax at 30 µM [%]	EC50 [nM]
CCCCCC(=O)NC1CN(C(=O)c2sc3nnc(C)c(C)c3c2N)C1 [Example B175]	52	> 10000
Cc1nnc2sc(C(=O)NCc3ccc(CN4CCSCC4)cc3)c(N)c2c1C [Example B493]	68	82
Cc1nnc2sc(C(=O)N3CC(c4ccccc4)(N(C)C)C3)c(N)c2c1C [Example B322]	42	2200
Cc1nnc2sc(C(=O)N3CC4CN(C(=O)C5CC5)CC4C3)c(N)c2c1C (stereo not drawn) [Example B332]	58	1600
Cc1nnc2sc(C(=O)NCc3ccc(S(=O)(=O)CCO[Si](c4ccccc4)(c4ccccc4)C(C)(C)C)cc3)c(N)c2c1C [Example B335]	74	890
COc1ccc(C2(CNC(=O)c3sc4nnc(C)c(C)c4c3N)CC2)cc1 [Example B75]	41	360
Cc1nnc2sc(C(=O)NCc3ccc(S(C)(=O)=O)nc3)c(N)c2c1C [Example B330]	68	150
COc1ncc(CNC(=O)c2sc3nnc(C)c(C)c3c2N)cn1 [Example B399]	62	290
Cc1nnc2sc(C(=O)NCCc3ccncc3)c(N)c2c1C [Example B93]	49	2300
Cc1nnc2sc(C(=O)NCc3ccc(-c4ccc5c(c4)OCO5)cc3)c(N)c2c1C [Example B501]	44	990
Cc1nnc2sc(C(=O)N3CC(NC(=O)Oc4ccccc4)C3)c(N)c2c1C [Example B167]	65	470
Cc1nnc2sc(C(=O)NCc3ccc(-c4cccs4)cc3)c(N)c2c1C [Example B460]	76	28
CCCCOc1ccc(C(=O)N2CCC(NC(=O)c3sc4nnc(C)c(C)c4c3N)C2)cc1 (stereo not drawn) [Example B212]	76	870
Cc1nnc2sc(C(=O)NCc3ccc4c(c3)CCO4)c(N)c2c1C [Example B27]	76	42
COc1ccc(SC2CN(C(=O)c3sc4nnc(C)c(C)c4c3N)C2)cc1 [Example B416]	61	110
Cc1nnc2sc(C(=O)NCc3ccc(S(C)(=O)=O)cn3)c(N)c2c1C [Example B329]	74	780
CCS(=O)(=O)c1ccc(CNC(=O)c2sc3nnc(C)c(C)c3c2N)cc1 [Example B49]	64	48
COCc1ccc(CNC(=O)c2sc3nnc(C)c(C)c3c2N)cc1 [Example B91]	53	97
Cc1nnc2sc(C(=O)N3CC(F)(c4ccc(S(=O)(=O)C(F)F)cc4)C3)c(N)c2c1C [Example B377]	50	72
Cc1nnc2sc(C(=O)N[C@@H]3C[C@H]3c3ccc(S(C)(=O)=O)cc3)c(N)c2c1C (single isomer, unassigned) [Example B111]	60	240
Cc1cccc(OC(=O)N2CC(NC(=O)c3sc4nnc(C)c(C)c4c3N)C2)c1 [Example B365]	58	7.9

Compound	Emax at 30 µM [%]	EC50 [nM]
Cc1nnc2sc(C(=O)NC3CN(c4ncc(Br)cn4)C3)c(N)c2c1C [Example B429]	67	23
COc1ccc(-c2ccc(CNC(=O)c3sc4nnc(C)c(C)c4c3N)cc2)cn1 [Example B486]	61	230
CC(=O)N1CC2CN(C(=O)c3sc4nnc(C)c(C)c4c3N)CC2C1 (stereo not drawn) [Example B278]	54	> 10000
Cc1nnc2sc(C(=O)N3CC(C)(F)C3)c(N)c2c1C [Example B302]	73	860
Cc1cc(NC(=O)c2sc3nnc(C)c(C)c3c2N)ccn1 [Example B88]	43	400
Cc1nnc2sc(C(=O)N3CCC(NC(=O)C4CC4c4ccccc4)C3)c(N)c2c1C (stereo not drawn) [Example B254]	65	1400
Cc1nnc2sc(C(=O)NC3CN(C(=O)c4ccc5c(c4)OCO5)C3)c(N)c2c1C [Example B133]	74	76
Cc1nnc2sc(C(=O)NCCN3CCOCC3)c(N)c2c1C [Example B28]	54	> 10000
COc1cccc(S(=O)(=O)N2CC(NC(=O)c3sc4nnc(C)c(C)c4c3N)C2)c1 [Example B137]	70	100
Cc1nnc2sc(C(=O)N[C@H]3CCN(c4ccccc4)C3)c(N)c2c1C [Example B193]	63	14
Cc1nnc2sc(C(=O)NC3CCN(C(=O)N4CCOCC4)C3)c(N)c2c1C (stereo not drawn) [Example B208]	73	2100
COCOc1ccc(CNC(=O)c2sc3nnc(C)c(C)c3c2N)cc1F [Example B162]	66	17
Cc1nnc2sc(C(=O)NCc3ccc(-c4ccccc4)cc3)c(N)c2c1C [Example B472]	64	230
Cc1nnc2sc(C(=O)NC3CCOC3)c(N)c2c1C (stereo not drawn) [Example B35]	77	840
Cc1nnc2sc(C(=O)NCc3ccc(CS(C)(=O)=O)cc3)c(N)c2c1C [Example B74]	69	170
Cc1nnc2sc(C(=O)N3CCC(NS(=O)(=O)c4ccccc4)C3)c(N)c2c1C (stereo not drawn) [Example B207]	64	1300
Cc1nnc2sc(C(=O)NC3CN(C(=O)c4cccc(Cl)c4)C3)c(N)c2c1C [Example B392]	60	74
Cc1nnc2sc(C(=O)NCc3ccc([S+]([O-])C(F)F)c(F)c3)c(N)c2c1C (stereo not drawn) [Example B465]	61	15
Cc1nnc2sc(C(=O)NCc3ccn(C)c(=O)c3)c(N)c2c1C [Example B466]	60	1200
Cc1nnc2sc(C(=O)NCc3cc(F)c(F)cc3F)c(N)c2c1C [Example B45]	71	45
Cc1nnc2sc(C(=O)NCc3ccc4[nH]ccc4c3)c(N)c2c1C [Example B195]	62	65

Compound	Emax at 30 µM [%]	EC50 [nM]
Cc1nnc2sc(C(=O)NC3CCN(S(=O)(=O)c4ccc(OC(F)(F)F)cc4)C3)c(N)c2c1C (stereo not drawn) [Example B245]	73	1200
Cc1nnc2sc(C(=O)NCc3cccnc3)c(N)c2c1C [Example B316]	73	310
Cc1nnc2sc(C(=O)NCc3ccc(-c4ccncc4)cc3)c(N)c2c1C [Example B457]	75	19
Cc1nnc2sc(C(=O)N3CC(N)(c4ccccc4)C3)c(N)c2c1C [Example B306]	51	1100
Cc1nnc2sc(C(=O)NCc3ccc(-c4ccccc4O)cc3)c(N)c2c1C [Example B494]	75	190
Nc1c(C(=O)NCc2ccncc2)sc2nnc(-c3ccccc3)c(-c3ccccc3)c12 [Example B39]	40	> 10000
Cc1nnc2sc(C(=O)NCc3ccc(N4CCOCC4)cc3)c(N)c2c1C [Example B327]	67	120
Cc1nnc2sc(C(=O)NCC3CCS(=O)(=O)C3)c(N)c2c1C (stereo not drawn) [Example B148]	50	> 10000
Cc1nnc2sc(C(=O)N3CC4CN(C(=O)C(C)(C)C)CC4C3)c(N)c2c1C (stereo not drawn) [Example B333]	53	> 10000
COc1ccc(S(=O)(=O)N2CC(NC(=O)c3sc4nnc(C)c(C)c4c3N)C2)cc1 [Example B144]	87	140
Cc1nnc2sc(C(=O)NCc3ccc(C(C)(O)C(F)(F)F)cc3)c(N)c2c1C (stereo not drawn) [Example B106]	71	20
Cc1nnc2sc(C(=O)NC3CN(C(=O)OCc4ccccc4)C3)c(N)c2c1C [Example B124]	58	22
Cc1nnc2sc(C(=O)N3CC(NS(C)(=O)=O)C3)c(N)c2c1C [Example B172]	51	> 10000
Cc1nnc2sc(C(=O)NCc3ccc(-c4cnc5ccccc5c4)cc3)c(N)c2c1C [Example B497]	46	710
Cc1nnc2sc(C(=O)N3CCC4(CCCC4)C3)c(N)c2c1C [Example B381]	63	710
Cc1nnc2sc(C(=O)NCCNS(=O)(=O)c3ccccc3)c(N)c2c1C [Example B360]	52	2500
Cc1nnc2sc(C(=O)N3CC4CN(c5ccc(C#N)nc5)CC4C3)c(N)c2c1C (stereo not drawn) [Example B436]	49	980
Cc1nnc2sc(C(=O)N3CC(F)(c4ccc(-c5cnn(C)c5)cc4)C3)c(N)c2c1C [Example B319]	51	390
Cc1nnc2sc(C(=O)NCc3ccccc3)c(N)c2c1C [Example B9]	97	170
Cc1nnc2sc(C(=O)N3CCC(NC(=O)c4ccc(F)c(F)c4)C3)c(N)c2c1C (stereo not drawn) [Example B217]	53	1100
Cc1nnc2sc(C(=O)NCCNS(C)(=O)=O)c(N)c2c1C [Example B352]	51	> 10000
